These results are taken from article PMC8470367, “Antihypertensive and Probiotic Effects of Hidakakombu (Saccharina angustata) Fermented by Lacticaseibacillus casei 001” (Foods, 2021).

SMILES strings stand for the structures. Values after ≈ are worked out from the molar mass of the structure shown.

In this assay the target is T1, angiotensin-converting enzyme (ACE).
T1 construct: enzyme of the commercial ACE-kit WST (Dojin / Dojindo)
Briefly: ACE-kit WST, microplate absorbance. Conditions: measured on HPLC fraction Fr. B isolated from fermented kelp extract, identified as D-Trp; pH and temperature not given. The assay is classed as biochemical.

The compound `N[C@H](Cc1c[nH]c2ccccc12)C(=O)O` [D-Trp] yielded a half-maximal inhibitory concentration (IC50) of 73 µg/mL (≈ 357 µM).

What is called IC50 is the point on the concentration scale where inhibition reaches its midpoint.
